One test has as its system MV4;11 cells. Put plainly: Cell Titer-Glo Luminescent Cell Viability Assay, cell growth inhibition against MV4;11 cells. The format is cell-based. The settings on record: Homo sapiens. On the procedure: Cell growth inhibition against MV4;11 cells was confirmed for the synthetic compounds. The Cell Titer-Glo Luminescent Cell Viability Assay (Promega, USA) was used to determine the number of viable cells in culture based on quantitation of the ATP present, which signals the presence of metabolically active cells. This assay was run in a 96-well plate format arrayed in a 10-point dose curve, ranging from 0 to 50 μM with 4-fold dilutions for each compound. Cells are seeded on Day 0 at 3750 cells per well. At Day 5, a portion of each well is assayed for viability according to the Cell Titer-Glo protocol. Briefly, cells/plates were centrifuged at 1100×g for 5 minutes. 100 μL of media was removed from each well and replaced with 100 μL of CellTiter-Glo. The plates were shaken at room temperature for 10 minutes and measured on a luminescence plate reader. Another portion of each well from the Day 5 plate is used to seed a new 96 plate containing fresh compound and media set up in the equivalent 10-point dose curve array in order to continue the cell growth inhibition assay for another 5 days. A final timepoint is collected at Day 10 using the Cell Titer-Glo protocol. Luminescence was detected on an EnVision® Multilabel Plate Reader (Perkin Elmer, Waltham, Mass.) and IC50 determination was made using Graph Pad Prism software.
For orientation: ATP-based viability assays read luminescence as a measure of living cells.

The next test concerns the target LSD1 (Homo sapiens, UniProt O60341). Put plainly: LSD1 10-dose IC50 fluorescence coupling enzyme assay (HRP/Amplex Red, resorufin). The format is biochemical. The settings on record: 10 M histone H3(1-21)K4me2 peptide substrate; 3-fold serial dilution in duplicate starting at 100 μM. How it is done: Compounds were tested in a 10-dose IC50 mode fluorescence coupling enzyme assay with 3-fold serial dilution in duplicate starting at 100 μM. The production of FAD-dependent H2O2 as a result of demethylase activity of LSD1 on […] histone H3(1-21)K4me2 peptide substrate was measured by coupling with HRP and Amplex Red to yield resorufin (fluorescence measured at Ex/Em=535/590 nm on EnVision, Perkin Elmer).

The mark [1] stands for this setting: MV4-11, 120 h, MV4;11 cells, Day 5, 10-point dose curve 0 to 50 μM, read-out: Cell Titer Glo IC50 (5 d).
Where [2] appears, read: MV4-11, MV4;11 cells, Day 10 (re-seeded at Day 5 with fresh compound), 10-point dose curve 0 to 50 μM, read-out: Cell Titer Glo IC50 (10 d).

Like-named read-outs stand apart in the source and are kept apart here.

Usually IC50 stands for the midpoint of a concentration-inhibition curve. For `COc1ccc(-n2nc(C(=O)N[C@@H]3CCC[C@@H](N)C3)cc2-c2ccc(C#N)c(F)c2)cc1` [Example 23, N-((1R,3R)-3-aminocyclohexyl)-5-(4-cyano-3-fluorophenyl)-1-(4-methoxyphenyl)-1H-pyrazole-3-carboxamide 2,2,2-trifluoroacetate], the IC50 with MV4;11 cells (setting [1]) and against LSD1 was 1 to 10 µM each time.
As for `Cn1cc2cc(-n3nc(C(=O)N4CCCC(N)C4)cc3-c3ccc(C#N)c(F)c3)ccc2n1` (stereo not shown) [Example 40, 4-(3-(3-Aminopiperidine-1-carbonyl)-1-(2-methyl-2H-indazol-5-yl)-1H-pyrazol-5-yl)-2-fluorobenzonitrile], the IC50 in the test on MV4;11 cells (setting [1]) and against LSD1 was below 0.5 µM throughout.
As to `COc1ccc(Cn2nc(C(=O)N3CCC[C@H](N)C3)cc2-c2ccc(C#N)c(F)c2)cc1` [Example 34, (S)-4-(3-(3-aminopiperidine-1-carbonyl)-1-(4-methoxybenzyl)-1H-pyrazol-5-yl)-2-fluorobenzonitrile 2,2,2-trifluoroacetate], the IC50 in the test with MV4;11 cells (setting [1]) lay within 1 to 10 µM; at LSD1 it was 0.5 to 1 µM.
Take `COc1ccc(-n2nc(NC(=O)[C@@H]3CCC[C@@H](N)C3)cc2-c2ccc(C#N)c(F)c2)cc1` [Example 89, (1R,3R)-3-amino-N-(5-(4-cyano-3-fluorophenyl)-1-(4-methoxyphenyl)-1H-pyrazol-3-yl)cyclohexane-1-carboxamide 2,2,2-trifluoroacetate]: the IC50 in the test with MV4;11 cells (setting [1]) was 1 to 10 µM; at LSD1 it was below 0.5 µM.
For the compound `CC1(O)CCN(c2ccc(-n3nc(C(=O)N4CCC[C@@H](N)C4)cc3-c3ccc(C#N)c(F)c3)cc2)CC1` [Example 47, (R)-4-(3-(3-aminopiperidine-1-carbonyl)-1-(4-(4-hydroxy-4-methylpiperidin-1-yl)phenyl)-1H-pyrazol-5-yl)-2-fluorobenzonitrile 2,2,2-trifluoroacetate], the IC50 in the test on MV4;11 cells (setting [2]) and at LSD1 was below 0.5 µM in each case.
For `CN1CCN(c2ccc(-n3nc(-c4ccc(C#N)c(F)c4)cc3C(=O)N3CCC[C@@H](N)C3)cc2)CC1` [Example 58, (R)-4-(5-(3-aminopiperidine-1-carbonyl)-1-(4-(4-methylpiperazin-1-yl)phenyl)-1H-pyrazol-3-yl)-2-fluorobenzonitrile 2,2,2-trifluoroacetate], the IC50 with MV4;11 cells (setting [2]) and against LSD1 was below 0.5 µM in each case.
For `Cn1cc2cc(-n3nc(-c4ccc(C#N)c(F)c4)cc3C(=O)N3CCCC(N)C3)ccc2n1` (stereo not shown) [Example 41, 4-(5-(3-Aminopiperidine-1-carbonyl)-1-(2-methyl-2H-indazol-5-yl)-1H-pyrazol-3-yl)-2-fluorobenzonitrile], the half-maximal inhibitory concentration (IC50) in the test on MV4;11 cells (setting [1]) is 1 to 10 µM; on LSD1 it was below 0.5 µM.
Consider `COc1ccc(-n2cc(C(=O)N3CCC(N)CC3)c(-c3ccc(C#N)cc3)n2)cc1` [Example 86, 4-(4-(4-aminopiperidine-1-carbonyl)-1-(4-methoxyphenyl)-1H-pyrazol-3-yl)benzonitrile], for which the IC50 in the test with MV4;11 cells (setting [1]) and on LSD1 was above 10 µM each time.
Regarding `Cn1ncc2cc(-n3nc(C(=O)N4CCC[C@H](N)C4)cc3-c3ccc(C#N)c(F)c3)ccc21` [Example 42, (S)-4-(3-(3-aminopiperidine-1-carbonyl)-1-(1-methyl-1H-indazol-5-yl)-1H-pyrazol-5-yl)-2-fluorobenzonitrile 2,2,2-trifluoroacetate], the IC50 in the test with MV4;11 cells (setting [1]) was 0.5 to 1 µM; in the test on MV4;11 cells (setting [2]), below 0.5 µM; against LSD1 it was below 0.5 µM.
Consider `COc1ccc(-n2nc(C(=O)N[C@H]3CCNC3)cc2-c2ccc(C#N)c(F)c2)cc1` [Example 26, (S)-5-(4-cyano-3-fluorophenyl)-1-(4-methoxyphenyl)-N-(pyrrolidin-3-yl)-1H-pyrazole-3-carboxamide 2,2,2-trifluoroacetate], for which the values for the IC50 with MV4;11 cells (setting [1]) and against LSD1 were 1 to 10 µM and 0.5 to 1 µM, respectively.
The matching figures for `Cc1ccc(-n2nc(C(=O)N3CCC(N)CC3)cc2-c2ccc(C#N)c(F)c2)cc1` [Example 9, 4-(3-(4-Aminopiperidine-1-carbonyl)-1-(p-tolyl)-1H-pyrazol-5-yl)-2-fluorobenzonitrile]: 1 to 10 µM and below 0.5 µM.
With `COc1ccc(-n2nc(NC(=O)C3CCNC3)cc2-c2ccc(C#N)c(F)c2)cc1` (stereo not shown) [Example 93, N-(5-(4-cyano-3-fluorophenyl)-1-(4-methoxyphenyl)-1H-pyrazol-3-yl)pyrrolidine-3-carboxamide 2,2,2-trifluoroacetate], the IC50 in the test on MV4;11 cells (setting [1]) is 1 to 10 µM; against LSD1, below 0.5 µM.
`Cc1ccc(-n2nc(C(=O)N3CCC(CN)CC3)cc2-c2ccc(C#N)c(F)c2)cc1` [Example 8, 4-(3-(4-(Aminomethyl)piperidine-1-carbonyl)-1-(p-tolyl)-1H-pyrazol-5-yl)-2-fluorobenzonitrile]: the IC50 in the test on MV4;11 cells (setting [1]) was above 10 µM; on LSD1 it was below 0.5 µM.
In the case of `COc1ccc(-n2nc(NC(=O)[C@H]3CCNC3)cc2-c2ccc(C#N)c(F)c2)cc1` [Example 95, (S)-N-(5-(4-cyano-3-fluorophenyl)-1-(4-methoxyphenyl)-1H-pyrazol-3-yl)pyrrolidine-3-carboxamide 2,2,2-trifluoroacetate], the values for the IC50 in the test on MV4;11 cells (setting [1]) and at LSD1 were 1 to 10 µM and below 0.5 µM, respectively.
As for `Cn1cc(-c2ccc(-n3nc(C(=O)N4CCC[C@H](N)C4)cc3-c3ccc(C#N)c(F)c3)cc2)cn1` [Example 65, (S)-4-(3-(3-aminopiperidine-1-carbonyl)-1-(4-(1-methyl-1H-pyrazol-4-yl)phenyl)-1H-pyrazol-5-yl)-2-fluorobenzonitrile 2,2,2-trifluoroacetate], the IC50 was 0.5 to 1 µM with MV4;11 cells (setting [1]), below 0.5 µM with MV4;11 cells (setting [2]) and below 0.5 µM against LSD1.
For the compound `Cc1cc(CCn2nc(C(=O)N3CCC[C@H](N)C3)cc2-c2ccc(C#N)c(F)c2)on1` [Example 39, (S)-4-(3-(3-aminopiperidine-1-carbonyl)-1-(2-(3-methylisoxazol-5-yl)ethyl)-1H-pyrazol-5-yl)-2-fluorobenzonitrile], the IC50 in the test with MV4;11 cells (setting [1]) and against LSD1 was above 10 µM throughout.
Turning to `N#Cc1ccc(-c2cc(C(=O)N3CCC[C@@H](N)C3)nn2-c2ccc(-c3cnc4c(c3)OCCO4)cc2)cc1F` [Example 84, (R)-4-(3-(3-aminopiperidine-1-carbonyl)-1-(4-(2,3-dihydro-[1,4]dioxino[2,3-b]pyridin-7-yl)phenyl)-1H-pyrazol-5-yl)-2-fluorobenzonitrile 2,2,2-trifluoroacetate], the IC50 in the test with MV4;11 cells (setting [2]) and against LSD1 was below 0.5 µM in each case.
Turning to `CN1CCN(c2ccc(-n3nc(C(=O)N4CCC[C@@H](N)C4)cc3-c3ccc(C#N)c(F)c3)nc2)CC1` [Example 54, (R)-4-(3-(3-aminopiperidine-1-carbonyl)-1-(5-(4-methylpiperazin-1-yl)pyridin-2-yl)-1H-pyrazol-5-yl)-2-fluorobenzonitrile 2,2,2-trifluoroacetate], the IC50 in the test on MV4;11 cells (setting [2]) and against LSD1 was 1 to 10 µM throughout.
For the compound `COc1ccc(-n2nc(-c3ccc(C#N)c(F)c3)cc2C(=O)N2CCCC(N)C2)cc1` (stereo not shown) [Example 17, 4-(5-(3-Aminopiperidine-1-carbonyl)-1-(4-methoxyphenyl)-1H-pyrazol-3-yl)-2-fluorobenzonitrile], the IC50 in the test on MV4;11 cells (setting [1]) was 1 to 10 µM; against LSD1 it was below 0.5 µM.
As for `N#Cc1ccc(-c2cc(C(=O)N3CCC[C@@H](N)C3)nn2-c2ccc(N3CCC(=O)CC3)cc2)cc1F` [Example 46, (R)-4-(3-(3-aminopiperidine-1-carbonyl)-1-(4-(4-oxopiperidin-1-yl)phenyl)-1H-pyrazol-5-yl)-2-fluorobenzonitrile], the concentration for half-maximal inhibition (IC50) in the test on MV4;11 cells (setting [2]) and against LSD1 was below 0.5 µM each time.
`COc1ccc(-n2nc(C(=O)N[C@@H]3CCNC3)cc2-c2ccc(C#N)c(F)c2)cc1` [Example 27, (R)-5-(4-cyano-3-fluorophenyl)-1-(4-methoxyphenyl)-N-(pyrrolidin-3-yl)-1H-pyrazole-3-carboxamide 2,2,2-trifluoroacetate]: the IC50 in the test with MV4;11 cells (setting [1]) and against LSD1 was 1 to 10 µM each time.
For `COc1ccc(-n2nc(C(=O)N3CCC[C@H](N)C3)cc2-c2ccc(C#N)c(F)c2)cc1` [Example 19, (S)-4-(3-(3-Aminopiperidine-1-carbonyl)-1-(4-methoxyphenyl)-1H-pyrazol-5-yl)-2-fluorobenzonitrile], the IC50 with MV4;11 cells (setting [1]), in the test on MV4;11 cells (setting [2]) and against LSD1 was below 0.5 µM in each case.
For `Cc1ccc(-n2nc(-c3ccc(C#N)c(F)c3)cc2C(=O)N2CCCC(N)C2)cc1` (stereo not shown) [Example 14, 4-(5-(3-Aminopiperidine-1-carbonyl)-1-(p-tolyl)-1H-pyrazol-3-yl)-2-fluorobenzonitrile], the IC50 in the test with MV4;11 cells (setting [1]) was 1 to 10 µM; on LSD1, below 0.5 µM.

The values are drawn from patent US20260085082A1, “KDM1A INHIBITORS FOR THE TREATMENT OF DISEASE” (Imago Biosciences, Inc., priority 2022, published 2026).
